The test system of assay [1] is lymphedema in mouse tails. Description: mouse tail lymphedema model (surgical ligation of peripheral lymphatics). It is filed as in vivo. As for the experimental part: To investigate the potential efficacy of ROCK inhibition in lymphedema, Y27632 was tested in an established mouse model of lymphedema (13, 14). Lymphedema was induced by surgical ligation of peripheral lymphatics in mouse tails (FIG. 2G). […] Tail-injured mice were left without any treatment for one month.

For assay [2], the system named is human dermal lymphatic endothelial cells (LECs), engineered lymphatic vessel. The assay is described as follows: lymphatics-on-chip lymphatic drainage under cytokine challenge. The format is cell-based. From the text:
(§1) To overcome the issues outlined above, a microfluidic 3D culture model featuring an engineered lymphatic vessel that can drain interstitial fluid was developed. The device includes a polydimethylsiloxane (PDMS) housing and two parallel cylindrical channels within a 3D collagen hydrogel (FIG. 1A). Human dermal lymphatic endothelial cells (LECs) seeded in one channel generated an engineered lymphatic vessel (FIG. 1A) that expressed lymphatic endothelial markers with appropriate apical-basal orientation (FIG. 1A and FIG. 1B). Furthermore, stimulation with the lymphangiogenic vascular endothelial growth factor C (VEGFC) triggered lymphatic sprouting (FIG. 1C). To characterize the integrity of the lymphatic endothelium within the device, their junctional organization was examined by immunofluorescence.
To functionally assess this rudimentary lymphatic vessel required a measure of lymphatic drainage. To accomplish this, the second, cell-free channel was pressurized with a surrogate lymph fluid composed of fluorescently labeled lymph molecules, including fatty acids, phospholipids, albumin, and insoluble particles (data not shown). The interstitial fluid pressure triggered convective fluid transport into the engineered lymphatic vessel. Lymph fluid drained by the lymphatic vessel accumulated in the connected reservoirs and was collected for analysis. Human dermal blood microvascular endothelial cells-generated blood vessels or cell-free channels were used as controls. […] Time-lapse microscopy of drainage further confirmed that fluid entered the luminal space of lymphatic vessels faster than that of blood vessels (FIG. 1H and data not shown).
Inflammation is a primary driver of lymphedema (2, 9, 10), so the next set of experiments tested whether inflammatory cytokines could impair drainage in this system. […] To begin to characterize what signaling pathways might be involved in tightening the lymphatic junctions, inhibitors that might impact IL-2-induced junction assembly were identified (data not shown): PP2, a Src-family of protein tyrosine kinase inhibitor; Wortmannin, a PI3K inhibitor; Y27632, a ROCK inhibitor; GGTI298, a Rap1 inhibitor; NSC23766, a Rac1 inhibitor; Blebbistatin, a Myosin II inhibitor; and Cpd22, an integrin-linked kinase inhibitor.

The next assay concerns tail vein edema. The assay is described as follows: mouse tail edema following cautery injury. The format is in vivo, mice. To be noted: following cautery injury (FIG. 4A). Here is the method:
Tail volume changes were quantified (FIG. 4B), and drainage to the iliac lymph nodes was assesses 1 hour after intradermal injection of Alexa647-conjugated albumin into tails of mice treated with KD025 or vehicle (FIG. 4C).

Another assay has as its system LEC junctions. The assay is described as follows: junction staining of engineered lymphatic vessels (immunofluorescence). The format is cell-based, human. As to conditions: 20 μM, IL-2 challenge.
Excerpt: as §1
Inflammation is a primary driver of lymphedema (2, 9, 10), so the next set of experiments tested whether inflammatory cytokines could impair drainage in this system. […]

The mark [3] stands for this setting: clinically used ROCK inhibitors, FIG. 2C.

Molecules are shown by their SMILES. Entries after “also recorded” stand apart in the source; their conditions may differ.

For the molecule `C[C@@H](N)[C@H]1CC[C@H](C(=O)Nc2ccncc2)CC1` [Compound Y27632], the “drainage to proximal lymph nodes compared to untreated control mice” value in assay [1] (1 h after intradermal Alexa647-conjugated albumin (FIG. 2H)) is listed as “tenfold higher drainage”. The “time to complete resolution of lymphedema following treatment” value in assay [1] (delayed treatment, one month after tail injury) is at most 2 weeks. In addition, the “reversal of existing chronic lymphedema” value in assay [1] (delayed treatment, one month after tail injury (FIG. 2I, 2J)) was “completely resolved the lymphedema”. Further, in assay [1] (treatment after surgical ligation (FIG. 2G)), the “lymphedema (tail volume change), prevention” value was “completely prevented lymphedema”. Also, the lymphatic drainage result is given as “normalized” in assay [2] (GM-CSF and G-CSF treated conditions (FIG. 2A, 2B)); “completely normalized the impaired drainage” in assay [2] (IL-2 treated lymphatic vessels).

In the case of `C[C@H]1CNCCCN1S(=O)(=O)c1cccc2cncc(F)c12` [Ripasudil], in assay [2] (setting [3]), the lymphatic drainage result is recorded as “similarly improved lymphatic drainage”.

Take `O=S(=O)(c1cccc2cnccc12)N1CCCNCC1` [Fasudil]: the lymphatic drainage entry in assay [2] (setting [3]) was “similarly improved lymphatic drainage”.

In the case of `CC(C)NC(=O)COc1cccc(-c2nc(Nc3ccc4[nH]ncc4c3)c3ccccc3n2)c1` [KD025, 2-[3-[4-(1H-indazol-5-ylamino)-2-quinazolinyl]phenoxy]-N-(1-methylethyl)-acetamide], the “visible tail vein edema swelling” value in the assay with tail vein edema is reported as “reduced visible tail vein edema swelling”. For the same molecule, in assay [2] (20 μM, IL-2 challenge (FIG. 3L)), the lymphatic drainage result is “reversed; also recorded: sufficient to reduce lymphatic drainage”. In the assay on LEC junctions, the “tightening of the LEC junctions” value is reported as “reversed tightening of the LEC junctions”.

For the origin of these results see patent US20240131029A1, “SELECTIVE ROCK2 INHIBITION FOR TREATMENT OF EDEMA AND ASSOCIATED CONDITIONS” (President and Fellows of Harvard College, priority 2021, published 2024).
